# Experimental data reported in patent publication US11084852B2, “Ubiquitin interacting motif peptides as therapeutics” (OKLAHOMA MEDICAL RESEARCH FOUNDATION, priority 2015, dated 2021).
# Positions of bridges follow the written chain, without caps; N, C: chain ends. Non-standard residues stand in square brackets, D forms with d. No end group written: not given here.
# Key:
# [1] = in vivo; cited from earlier work
# [2] = free acid; cited from earlier work
# [3] = system: Lewis lung carcinoma (LLC) tumors; test: Subcutaneous LLC tumor model; design: species or system mice; conditions: mouse, in vivo
# Description: C56BL/6 mice and TRAMP prostate cancer models were obtained from Jackson Laboratory. SCID/NOD immune-deficient mice were purchased from Charles River Labs (Wilmington, Mass.). WT-Flk, EC-iDKO, EC-iDKO-Flk and EC-iDKO-Notch mice were generated by crossing conditional double knockout mice (EC-iDKO) with Flk-1^fl/fl or NICD^LSL mice as described in (FIGS. 13A-D) (Pasula et al., 2012; Tessneer et al., 2014). All animal protocols have been approved by the IACUC in Oklahoma Medical Research Foundation. Animal tumor models were established as follows: • (1) Subcutaneous Tumor Models (LLC, melanoma B16 and glioma U87/SCID): LLC, melanoma and glioma tumor models were established as previously described (Pasula et al., 2012). Synthetic peptides were administered at 10 mg/kg intravenously every second day beginning after small tumors were established (20-50 mm^3; approximately 12 days post implantation). Tumor volumes were monitored every other day until euthanized following IACUC tumor scoring system. • (2) TRAMP Prostate Tumor Model (Transgenic Adenocarcinoma of Mouse Prostate). […] Mortality rates were recorded. Prostate tumors were analyzed by weighing genitourinary tract (GU), H&E staining, IHC, IF staining and Western blotting as previously described (Pasula et al., 2012; Tessneer et al., 2013). Lymph nodes, lung, liver, spleen and bones were similarly analyzed for metastasis. • (3) B16 Melanoma Metastasis Model. […] Mice were sacrificed after 5 weeks and tissues (including lung, liver and lymph nodes, etc.) were harvested and analyzed for metastasis by gross morphology, H&E, IHC or IF staining, as well as Western blotting. • (4) Orthotopical Glioma Tumor Models (U87/SCID and GL261/C56BL/6). […] Tumors were monitored by MRI as previously described (Pasula et al., 2012). […] Tumor volume was analyzed by MRI every other day until the mice died or were euthanized following IACUC tumor scoring system. Mortality rates were recorded. […]
# EGFR = molecular target: T1, EGFR (Mus musculus, UniProt Q01279); test: Biochemical pulldown assay using ex vivo tumors; assay type: binding, mice; conditions: biotinylated peptide, ex vivo tumor lysates
# T1 construct: from tissue; host or cells: LLC or GL261 glioma subcutaneous tumors from C57BL/6 mice
# Protocol: (§1) (FIGS. 15A and 15C) LLC (FIG. 15A) or Glioma GL261 (FIG. 15C) subcutaneous tumors removed from C57BL/6 mice were homogenized in lysis buffer containing 50 mM Tris-HCl pH 7.5, 150 mM NaCl, 0.05% NP-40, 10% glycerol, 1× cocktail (Roche) and 20 mM NEM (N-ethylmaleimide). Lysate protein concentration was determined by BCA kit (Pierce). 2 mg of total lysate was co-incubated with 50 μg of either biotinylated UPI peptide, UPI mutant (UPI-Mut) peptide or control peptide. Neutri-Avidin beads (Invitrogen) were then added to pulldown biotinylated UPI or control peptide. These beads were subjected to two washes with lysis buffer and two washes with ½ lysis solutions. Afterwards, beads were boiled in 2× loading buffer and the supernatant was used for Western blot analysis of VEGFR2, PDGFR-β, EGFR and FGFR1; (FIGS. 15B and 15D) Quantification of peptide pulldown of VEGFR2 in LLC (FIG. 15B) and Glioma GL261 (FIG. 15D) tumors, n=5; P values are indicated in the figures.
# (§2) LLC or GL261 glioma tumors was homogenized in lysis buffer containing 50 mM Tris-HCl pH7.5, 150 mM NaCl, 0.05% NP-40, 10% Glycerol, 1× cocktail, and 20 mM NEM. Protein concentration was determined by BCA kit (Pierce). 0.5-2 mg lysates were co-incubated with 100 μM biotinylated UPI or control peptides, followed by the addition of Neutri-Avidin beads (Invitrogen) for pulldown binding assay. Beads were washed twice with lysis buffer, then twice with 1:1 lysis buffer PBS. Beads were then boiled for 5 min in 2× sample loading buffer. Denatured proteins were subjected to Western blotting using anti-VEGFR2, anti-EGFR, anti-FGFR1 and anti-PDGFR-β antibodies.
# FGFR1 = molecular target: T2, FGFR1 (Mus musculus, UniProt P16092); test: Biochemical pulldown assay using ex vivo tumors; assay type: binding, mice; conditions: biotinylated peptide, ex vivo tumor lysates
# T2 construct: from tissue; host or cells: LLC or GL261 glioma subcutaneous tumors from C57BL/6 mice
# T2 sequence (P16092 22-822): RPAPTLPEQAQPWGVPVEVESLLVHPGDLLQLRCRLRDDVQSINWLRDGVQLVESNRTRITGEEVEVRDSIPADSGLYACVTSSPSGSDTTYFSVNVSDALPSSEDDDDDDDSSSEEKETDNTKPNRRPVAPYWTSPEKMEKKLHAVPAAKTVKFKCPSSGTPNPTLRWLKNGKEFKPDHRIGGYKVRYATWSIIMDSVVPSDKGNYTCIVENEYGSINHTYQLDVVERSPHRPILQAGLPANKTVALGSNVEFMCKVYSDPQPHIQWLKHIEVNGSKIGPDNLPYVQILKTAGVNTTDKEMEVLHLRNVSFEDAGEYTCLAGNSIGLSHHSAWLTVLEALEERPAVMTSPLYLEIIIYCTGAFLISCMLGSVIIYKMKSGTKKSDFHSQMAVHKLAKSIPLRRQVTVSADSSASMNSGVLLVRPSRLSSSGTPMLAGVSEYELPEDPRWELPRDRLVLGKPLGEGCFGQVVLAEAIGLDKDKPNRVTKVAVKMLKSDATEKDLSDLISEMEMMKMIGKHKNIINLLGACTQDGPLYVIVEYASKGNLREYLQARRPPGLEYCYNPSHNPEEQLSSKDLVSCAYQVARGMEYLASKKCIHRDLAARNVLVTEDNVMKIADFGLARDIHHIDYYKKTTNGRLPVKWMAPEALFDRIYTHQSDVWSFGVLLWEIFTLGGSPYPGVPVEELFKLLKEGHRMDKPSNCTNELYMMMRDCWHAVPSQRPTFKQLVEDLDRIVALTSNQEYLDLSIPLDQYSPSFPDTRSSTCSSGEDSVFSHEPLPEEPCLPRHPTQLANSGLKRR
# Protocol: as §1, §2
# PDGFR-β = molecular target: T3, PDGFR-β (Mus musculus, UniProt P05622); test: Biochemical pulldown assay using ex vivo tumors; assay type: binding, mice; conditions: biotinylated peptide, ex vivo tumor lysates
# T3 construct: from tissue; host or cells: LLC or GL261 glioma subcutaneous tumors from C57BL/6 mice
# T3 sequence (P05622 32-1098): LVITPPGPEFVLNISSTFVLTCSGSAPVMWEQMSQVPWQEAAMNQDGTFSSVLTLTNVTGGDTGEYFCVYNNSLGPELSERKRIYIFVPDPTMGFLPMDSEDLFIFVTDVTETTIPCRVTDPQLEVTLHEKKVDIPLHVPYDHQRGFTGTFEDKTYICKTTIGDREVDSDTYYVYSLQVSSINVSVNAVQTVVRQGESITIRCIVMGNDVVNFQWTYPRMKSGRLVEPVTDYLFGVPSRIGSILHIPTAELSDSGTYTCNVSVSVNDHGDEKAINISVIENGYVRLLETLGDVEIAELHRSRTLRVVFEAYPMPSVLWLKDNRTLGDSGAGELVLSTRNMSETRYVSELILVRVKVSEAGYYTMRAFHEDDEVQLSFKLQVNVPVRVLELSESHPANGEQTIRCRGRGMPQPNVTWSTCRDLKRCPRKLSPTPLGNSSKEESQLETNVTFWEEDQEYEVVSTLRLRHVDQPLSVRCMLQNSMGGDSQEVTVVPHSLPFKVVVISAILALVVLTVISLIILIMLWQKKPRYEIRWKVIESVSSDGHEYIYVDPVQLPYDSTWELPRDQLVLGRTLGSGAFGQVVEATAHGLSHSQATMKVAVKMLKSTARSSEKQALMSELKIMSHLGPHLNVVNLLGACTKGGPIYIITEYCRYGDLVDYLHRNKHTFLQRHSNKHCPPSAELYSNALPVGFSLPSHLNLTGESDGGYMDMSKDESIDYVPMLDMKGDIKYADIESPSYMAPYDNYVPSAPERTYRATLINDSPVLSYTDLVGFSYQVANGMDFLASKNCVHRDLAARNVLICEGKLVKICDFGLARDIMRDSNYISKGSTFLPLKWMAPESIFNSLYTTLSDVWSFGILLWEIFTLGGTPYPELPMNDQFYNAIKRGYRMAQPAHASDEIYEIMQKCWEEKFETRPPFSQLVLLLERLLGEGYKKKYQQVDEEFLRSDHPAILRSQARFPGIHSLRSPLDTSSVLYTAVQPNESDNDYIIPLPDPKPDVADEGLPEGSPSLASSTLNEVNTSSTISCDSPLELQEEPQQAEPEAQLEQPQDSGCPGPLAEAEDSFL
# Protocol: as §1, §2
# VEGFR2 = molecular target: T4, VEGFR2 (Mus musculus, UniProt P35918); test: Biochemical pulldown assay using ex vivo tumors; assay type: binding, mice; conditions: biotinylated peptide, ex vivo LLC or GL261 tumor lysates
# T4 construct: from tissue; host or cells: LLC or GL261 glioma subcutaneous tumors from C57BL/6 mice
# T4 sequence (P35918 20-1345): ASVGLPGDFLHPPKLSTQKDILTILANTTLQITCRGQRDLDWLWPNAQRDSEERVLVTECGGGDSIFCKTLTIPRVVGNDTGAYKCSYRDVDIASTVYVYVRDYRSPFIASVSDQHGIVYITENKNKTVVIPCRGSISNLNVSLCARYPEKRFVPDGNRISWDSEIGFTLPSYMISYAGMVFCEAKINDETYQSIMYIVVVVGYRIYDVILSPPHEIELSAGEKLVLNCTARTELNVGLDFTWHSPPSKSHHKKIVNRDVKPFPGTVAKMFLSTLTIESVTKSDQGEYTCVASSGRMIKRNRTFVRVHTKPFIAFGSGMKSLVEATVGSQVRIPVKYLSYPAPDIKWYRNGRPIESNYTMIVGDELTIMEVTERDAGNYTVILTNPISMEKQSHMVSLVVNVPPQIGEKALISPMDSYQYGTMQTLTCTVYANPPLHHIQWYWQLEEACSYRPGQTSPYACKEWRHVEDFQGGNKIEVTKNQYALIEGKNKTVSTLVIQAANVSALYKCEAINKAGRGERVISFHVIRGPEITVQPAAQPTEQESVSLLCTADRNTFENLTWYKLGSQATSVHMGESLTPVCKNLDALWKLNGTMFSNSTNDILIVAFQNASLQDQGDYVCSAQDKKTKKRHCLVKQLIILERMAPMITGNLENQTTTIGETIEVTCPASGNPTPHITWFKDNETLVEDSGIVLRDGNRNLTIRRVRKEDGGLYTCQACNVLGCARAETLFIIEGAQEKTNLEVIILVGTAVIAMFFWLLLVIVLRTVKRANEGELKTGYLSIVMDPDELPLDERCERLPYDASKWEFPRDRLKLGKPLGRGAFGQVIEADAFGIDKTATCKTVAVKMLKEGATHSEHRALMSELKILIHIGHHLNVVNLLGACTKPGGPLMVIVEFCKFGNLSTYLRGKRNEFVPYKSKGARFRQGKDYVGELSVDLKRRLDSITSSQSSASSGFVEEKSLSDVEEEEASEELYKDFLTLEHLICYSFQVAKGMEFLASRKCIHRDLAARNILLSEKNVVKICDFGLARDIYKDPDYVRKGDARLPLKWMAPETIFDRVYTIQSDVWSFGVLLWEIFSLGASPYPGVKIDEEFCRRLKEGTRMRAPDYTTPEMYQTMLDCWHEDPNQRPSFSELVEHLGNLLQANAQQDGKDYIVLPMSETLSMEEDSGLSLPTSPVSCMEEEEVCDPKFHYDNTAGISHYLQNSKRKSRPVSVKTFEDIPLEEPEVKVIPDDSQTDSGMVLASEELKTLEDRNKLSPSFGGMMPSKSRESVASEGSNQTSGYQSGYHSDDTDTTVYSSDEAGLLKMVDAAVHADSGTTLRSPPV
# Protocol: as §1, §2
# ER stress = ER stress and inflammation after IP3R1 downregulation; assay type: cell-based
# Description: FIGS. 22A-D. Downregulation of IP3R1 by epsins augments ER stress-mediated inflammation in Endothelium. (FIG. 22A) Deletion of IP3R1 auguments ER stress mediated by athero-prone substances. (FIG. 22B) Inhibition of ER stress by 4-PBA protected athero-prone substances mediated ER stress due to loss of IP3R1. (FIG. 22C) Loss of epsins auguments NF-kB signaling. (FIG. 22D) NF-kB augmentation can be prevented by ER stress inhibitor 4-PBA.
# [4] = HFD-induced obesity model; assay type: in vivo; conditions: i.p., mice fed HFD
# Description: FIGS. 33A-C. […] (FIG. 33A) Male and (FIG. 33B) Female mice, n=8 in each group; P<0.001. (FIG. 33C) Representative image of PBS or AP-UIM peptide administration for 3 months.
# The inventors have tested a UIM peptide (AP-UIM) in HFD-induced obesity model.
compound,measurement,setting,value
"CC(C)(C)[N+]([O-])=Cc1ccc(S(=O)(=O)O)cc1S(=O)(=O)O [2,4-ds PBN, 2,4-disulfonyl phenyl-tert-butyl nitrone]",efficacy compared to PBN,[1],unexpected increase in efficacy as compared to PBN
same,toxicity compared to PBN,[1],marked and highly significant decrease in toxicity as compared to PBN
same,solubility in water,[2],greater than 1 gram/ml
"UPI-Mut: UPI bearing the Q9A/A13S/K16A triple mutation in the epsin UIM, SEQ ID NO: 43 ([dS]G[dE][dE][dE][dL][dQ][dL][dA][dL][dA][dL][dS][dM][dS][dA][dE][dE][dM]G[dC][dI][dK][dS][dK][dR][dK][dC][dR]G[dD][dK]G[dP][dD][dC]; disulfide 28-36 (inferred); not fully specified)","tumor growth in LLC tumor-bearing mice, variant peptides",[3],failed to inhibit tumor growth compared to mice treated with UPI peptide
same,co-precipitation of EGFR,EGFR,neither UPI nor UPI-Mut peptide pulled down
same,co-precipitation of FGFR1,FGFR1,neither UPI nor UPI-Mut peptide pulled down
same,co-precipitation of PDGFR-β,PDGFR-β,neither UPI nor UPI-Mut peptide pulled down
same,binding to VEGFR2 in pulldown,VEGFR2,exhibited reduced binding to VEGFR2
O=C(O)CCCc1ccccc1 [4-PBA],ER stress and inflammation,ER stress,inhibits ER stress and inflammation
"AP-UIM: Antennapedia (penetratin) conjugated to the N-terminus of the epsin UIM peptide, SEQ ID NO: 40 (RQIKIWFQNRRMKWKKSGEEELQLQLALAMSKEE; not fully specified (some residues))",body weight gain,[4],significantly attenuated body weight gain
